Measured values published in patent publication US10525088B2, “Lactic acid bacterial immunopotentiating activity-increasing composition and method for increasing immunopotentiating activity of lactic acid bacteria” (Kirin Holdings Kabushiki Kaisha, priority 2014, dated 2020).

System: dendritic cells induced from myeloblasts
Assay: Interferon-α production by dendritic cells induced from mouse myeloblasts (Flt-3L), cultured with JCM5805 and sample
Type: cell-based, mice
Conditions: 0.1 (w/v) % JCM5805 + 0.25 (w/v) % sample; myeloblast-derived dendritic cells; 24 hours
Method: Medium was inoculated with 1 ml of the obtained cell suspension and the culture was incubated at 37° C., 5% CO2 in a CO2 incubator for 1 week to induce dendritic cells. […] The samples were the lactic acid bacteria only, sucrose palmitate, and Ryoto Sugar Ester […] (mainly containing sucrose palmitate) (Mitsubishi-Kagaku Foods Corporation).

In the case of sucrose palmitate, the “change of interferon-α inducing activity of JCM5805 by the sample” value is reported as “increased”.
